Test results published in patent publication US20230201187A1, “USE OF NAD+ PRECURSORS, STING INHIBITORS, AND FXR AGONISTS FOR INHIBITING SARS-COV-2 (COVID-19)-INDUCED CYTOKINE RELEASE” (Georgetown University, priority 2020, published 2023).

Experiments:
Assay type in all cases: in vivo
IL-1β [1] = assay: IL-1β mRNA expression in kidneys of old mice (Example 2); conditions: kidneys of 21-month-old mice; 1 mg/kg body weight/day intraperitoneally for three weeks; FIG. 3E
Protocol: (§1) FIGS. 3A-3F show mRNA expression of peroxisome proliferator-activated receptor-gamma coactivator (PGC)-1α (PGC-1α) (FIG. 3A), PGC-1β (FIG. 3B), ERR-alpha (ERRα) (FIG. 3C), p21 (FIG. 3D), interleukin (IL)-1β (FIG. 3E), and signal transducer and activator of transcription 3 (Stat3) (FIG. 3F) in the kidneys of 4-month old (“young”) and 21-month-old (“old”) mice, in which a cohort of old mice were administered a STING inhibitor (“SI”), C-176, as described in Example 2.
(§2) A study was conducted to evaluate expression levels of various markers and cytokines under inflammatory conditions, and the impact of administering a STING inhibitor on expression and protein levels.
(§3) In one aspect of the study, mRNA expression levels of PGC-1α, PGC-1β, ERRα, p21, IL-1β, and Stat3 were examined in kidneys of mice that are 4 months old (young) and kidneys of mice that are 21 months old (aged and marked by inflammation).
(§4) In a second aspect of the study, an inhibitor of STING, C-176, was administered (1 mg/kg body weight/day, administered intraperitoneally, for three weeks) to the 21-month-old mice.

p-Stat3 = p-Stat3 protein levels in kidneys of db/db mice (Example 3); conditions: kidneys of 4-month-old db/db mice; 1 mg/kg body weight/day intraperitoneally for eight weeks; FIGS. 6A and 6B
Protocol: (§5) FIGS. 6A-6C show p-Stat3 protein levels presented as an immunoblot (FIG. 6A) and quantified (FIG. 6B), and protein levels of phospho-interferon regulatory factor (p-IRF) (FIG. 6C) in the kidneys of […] diabetic mice (“db/db”) and non-diabetic mice (“db/m”) mice, in which a cohort of the mice were administered STING inhibitor C-176, as described in Example 3.
(§6) A study was conducted to evaluate mRNA expression and protein levels of various markers and cytokines in kidneys of 4-month-old db/db mice, which is a model of type 2 diabetes due to a deficiency in leptin receptor activity, and in 4-month-old db/m mice, which are nondiabetic controls; and the effects of administering STING inhibitor C-176 (1 mg/kg body weight/day, administered intraperitoneally, for eight weeks) to these mice.

[2] = tested on: inflammation in the kidneys of diabetic mice; assay: Inflammation in the kidneys of diabetic mice (Example 3); conditions: db/db mice; 1 mg/kg body weight/day intraperitoneally for eight weeks
Protocol: as §6

Stat3 [3] = assay: Stat3 mRNA expression in kidneys of old mice (Example 2); conditions: kidneys of 21-month-old mice; 1 mg/kg body weight/day intraperitoneally for three weeks; FIG. 3F
Protocol: as §1, §2, §3, §4

p21 = p21 mRNA expression in kidneys of old mice (Example 2); conditions: kidneys of 21-month-old mice; 1 mg/kg body weight/day intraperitoneally for three weeks; FIG. 3D
Protocol: as §1, §2, §3, §4

Stat3 [4] = assay: Stat3 protein levels (immunoblot) in kidneys of old mice (Example 2); conditions: kidneys of 21-month-old mice; 1 mg/kg body weight/day intraperitoneally for three weeks; FIGS. 4C and 4D
Protocol: (§7) FIGS. 4A-4D show PGC-1α protein levels presented as an immunoblot (FIG. 4A) and quantified (FIG. 4B), and p-Stat3 protein levels presented as an immunoblot (FIG. 4C) and quantified (FIG. 4D), in the kidneys of 4-month old (“young”) and 21-month-old (“old”) mice, in which a cohort of the old mice were administered a STING inhibitor (“SI”), C-176, as described in Example 2.
as §2, §4

PGC-1α [5] = assay: PGC-1α protein levels (immunoblot) in kidneys of old mice (Example 2); conditions: kidneys of 21-month-old mice; 1 mg/kg body weight/day intraperitoneally for three weeks; FIGS. 4A and 4B
Protocol: as §7, §2, §4

p-IRF3 = p-IRF3 protein levels in kidneys of db/db mice (Example 3); conditions: kidneys of 4-month-old db/db mice; 1 mg/kg body weight/day intraperitoneally for eight weeks; FIG. 6C
Protocol: as §5, §6

PGC-1α [6] = assay: PGC-1α mRNA expression in kidneys of old mice (Example 2); conditions: kidneys of 21-month-old mice; 1 mg/kg body weight/day intraperitoneally for three weeks; FIG. 3A
Protocol: as §1, §2, §3, §4

PGC-1β = PGC-1β mRNA expression in kidneys of old mice (Example 2); conditions: kidneys of 21-month-old mice; 1 mg/kg body weight/day intraperitoneally for three weeks; FIG. 3B
Protocol: as §1, §2, §3, §4

IL-1β [7] = assay: IL-1β mRNA expression in kidneys of db/db mice (Example 3); conditions: kidneys of 4-month-old db/db mice; 1 mg/kg body weight/day intraperitoneally for eight weeks; FIG. 5
Protocol: as §6

ERRα = ERRα mRNA expression in kidneys of old mice (Example 2); conditions: kidneys of 21-month-old mice; 1 mg/kg body weight/day intraperitoneally for three weeks; FIG. 3C
Protocol: as §1, §2, §3, §4

STING [8] = assay: STING protein levels (immunoblot) in kidneys of young and old mice (Example 1); conditions: kidneys of 21-month-old mice; 25 mg/kg body weight/day intraperitoneally for eight weeks; FIGS. 2A and 2B
Protocol: (§8) FIGS. 2A-2D show STING protein levels presented as an immunoblot (FIG. 2A) and quantified (FIG. 2B), and cGAS protein levels presented as an immunoblot (FIG. 2C) and quantified (FIG. 2D), in the kidneys of 4-month old (“young”) and 21-month-old (“old”) mice, in which a cohort of mice were administered a pan ERR agonist, as described in Example 1.
(§9) A study was conducted to evaluate STING and cGAS under inflammatory conditions.
(§10) In one aspect of the study, mRNA expression and protein levels of STING and cGAS were assessed in kidneys of mice that are 4 months old (young) and kidneys of mice that are 21 months old (aged and marked by inflammation).
(§11) In a second aspect of the study, 4-month-old mice and 21-month-old mice were treated with a pan ERR agonist, SLU-PP-332 (25 mg/kg body weight/day, administered intraperitoneally, for eight weeks).

STING [9] = assay: STING mRNA expression in kidneys of young and old mice (Example 1); conditions: kidneys of 21-month-old mice; 25 mg/kg body weight/day intraperitoneally for eight weeks; FIG. 1A
Protocol: (§12) FIGS. 1A-1B show mRNA expression of STING (FIG. 1A) and cyclic guanosine monophosphate-adenosine monophosphate (cyclic GMP-AMP) synthase (cGAS) (FIG. 1B) in the kidneys of 4-month old (“young”) and 21-month-old (“old”) mice, in which a cohort of mice were administered a pan estrogen-related receptor (ERR) agonist, as described in Example 1.
as §9, §10, §11

cGAS [10] = assay: cGAS protein levels (immunoblot) in kidneys of young and old mice (Example 1); conditions: kidneys of 21-month-old mice; 25 mg/kg body weight/day intraperitoneally for eight weeks; FIGS. 2C and 2D
Protocol: as §8, §9, §10, §11

cGAS [11] = assay: cGAS mRNA expression in kidneys of young and old mice (Example 1); conditions: kidneys of 21-month-old mice; 25 mg/kg body weight/day intraperitoneally for eight weeks; FIG. 1B
Protocol: as §12, §9, §10, §11

O=C(Nc1ccc(I)cc1)c1ccc([N+](=O)[O-])o1 [C-176, N-(4-iodophenyl)-5-nitro-2-furancarboxamide]
mRNA expression of IL-1β (IL-1β [1]): reversed the increase
p-Stat3 levels (p-Stat3): reversed the increase
inflammation in the kidneys of diabetic mice [2]: decreases inflammation
mRNA expression of Stat3 (Stat3 [3]): reversed the increase
mRNA expression of p21 (p21): reversed the increase
protein levels of Stat3 (Stat3 [4]): reversed the increase
protein levels of PGC-1α (PGC-1α [5]): reversed the decrease
p-IRF3 levels (p-IRF3): reversed the increase
mRNA expression of PGC-1α (PGC-1α [6]): reversed the decrease
mRNA expression of PGC-1β (PGC-1β): reversed the decrease
mRNA expression of IL-1β (activation of IL-1β) (IL-1β [7]): reversed the activation
mRNA expression of ERRα (ERRα): reversed the decrease

O=C(N/N=C/c1ccc2ccccc2c1)c1ccc(O)cc1 [SLU-PP-332]
protein levels of STING (STING [8]): significantly reversed the increase
mRNA expression of STING (STING [9]): significantly reversed the increase
protein levels of cGAS (cGAS [10]): significantly reversed the increase
mRNA expression of cGAS (cGAS [11]): significantly reversed the increase
